# According to ChEMBL document CHEMBL5390208, “Bioactive Isoquinoline Alkaloids with Diverse Skeletons from Fissistigma polyanthum” (J Nat Prod, 2023):
# Activity calls are given as the source filed them. The rule behind the calls is not given here.
# Assays:
# [1] = Antioxidant activity assessed as ABTS radical scavenging activity incubated for 10 min by spectrophotometric analysis; assay type: functional
# [2] = target: T1, Amyloid-beta precursor protein (Homo sapiens, UniProt P05067); experiment: Inhibition of amyloid beta 42 (unknown origin) aggregation at 50 uM incubated for 24 hrs by ThT assay relative to control
# T1 sequence (P05067 whole entry): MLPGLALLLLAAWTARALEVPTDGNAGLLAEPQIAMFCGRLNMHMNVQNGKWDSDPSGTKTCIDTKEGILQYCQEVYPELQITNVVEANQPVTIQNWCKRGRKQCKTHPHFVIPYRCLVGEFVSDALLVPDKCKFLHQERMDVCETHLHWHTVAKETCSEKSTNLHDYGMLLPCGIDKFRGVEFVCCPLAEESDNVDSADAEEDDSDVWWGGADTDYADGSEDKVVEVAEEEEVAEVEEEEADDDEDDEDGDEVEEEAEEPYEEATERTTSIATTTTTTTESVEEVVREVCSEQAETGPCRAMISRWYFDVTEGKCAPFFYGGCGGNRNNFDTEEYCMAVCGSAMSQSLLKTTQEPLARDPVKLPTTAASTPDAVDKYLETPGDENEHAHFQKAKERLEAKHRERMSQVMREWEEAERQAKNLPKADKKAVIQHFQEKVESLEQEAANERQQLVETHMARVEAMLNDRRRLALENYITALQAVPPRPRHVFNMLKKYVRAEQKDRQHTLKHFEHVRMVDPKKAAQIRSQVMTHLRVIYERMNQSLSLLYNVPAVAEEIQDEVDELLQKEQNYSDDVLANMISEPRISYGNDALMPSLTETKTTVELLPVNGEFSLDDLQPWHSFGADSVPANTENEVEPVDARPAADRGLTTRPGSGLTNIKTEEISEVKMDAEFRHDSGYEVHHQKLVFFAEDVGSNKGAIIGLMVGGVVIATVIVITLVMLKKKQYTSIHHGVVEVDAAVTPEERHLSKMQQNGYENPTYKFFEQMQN
# [3] = target: Cholinesterase (Homo sapiens, UniProt P06276); experiment: Inhibition of BChE (unknown origin) using BTCI as substrate preincubated for 15 min followed by substrate addition measured after 40 min by Ellman's method
# Cholinesterase, sequence (P06276 whole entry): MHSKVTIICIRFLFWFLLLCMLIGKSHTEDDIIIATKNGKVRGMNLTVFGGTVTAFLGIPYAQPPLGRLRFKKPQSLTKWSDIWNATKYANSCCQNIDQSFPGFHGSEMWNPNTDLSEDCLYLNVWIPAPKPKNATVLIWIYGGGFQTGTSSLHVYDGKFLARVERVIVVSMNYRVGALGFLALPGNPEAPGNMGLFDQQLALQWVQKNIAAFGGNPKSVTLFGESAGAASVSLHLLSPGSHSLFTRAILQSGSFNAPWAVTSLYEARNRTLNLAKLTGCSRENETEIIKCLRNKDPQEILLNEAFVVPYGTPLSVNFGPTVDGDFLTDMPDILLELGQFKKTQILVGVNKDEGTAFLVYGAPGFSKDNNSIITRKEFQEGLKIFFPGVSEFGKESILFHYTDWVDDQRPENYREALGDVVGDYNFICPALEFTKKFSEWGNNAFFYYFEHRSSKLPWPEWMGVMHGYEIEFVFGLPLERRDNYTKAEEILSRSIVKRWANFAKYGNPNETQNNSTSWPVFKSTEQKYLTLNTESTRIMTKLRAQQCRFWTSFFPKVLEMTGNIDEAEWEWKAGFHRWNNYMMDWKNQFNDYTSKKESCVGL
# [4] = target: Acetylcholinesterase (Homo sapiens, UniProt P22303); experiment: Inhibition of AChE (unknown origin) using ATCI as substrate preincubated for 15 min followed by substrate addition measured after 40 min by Ellman's method
# Acetylcholinesterase, sequence (P22303 whole entry): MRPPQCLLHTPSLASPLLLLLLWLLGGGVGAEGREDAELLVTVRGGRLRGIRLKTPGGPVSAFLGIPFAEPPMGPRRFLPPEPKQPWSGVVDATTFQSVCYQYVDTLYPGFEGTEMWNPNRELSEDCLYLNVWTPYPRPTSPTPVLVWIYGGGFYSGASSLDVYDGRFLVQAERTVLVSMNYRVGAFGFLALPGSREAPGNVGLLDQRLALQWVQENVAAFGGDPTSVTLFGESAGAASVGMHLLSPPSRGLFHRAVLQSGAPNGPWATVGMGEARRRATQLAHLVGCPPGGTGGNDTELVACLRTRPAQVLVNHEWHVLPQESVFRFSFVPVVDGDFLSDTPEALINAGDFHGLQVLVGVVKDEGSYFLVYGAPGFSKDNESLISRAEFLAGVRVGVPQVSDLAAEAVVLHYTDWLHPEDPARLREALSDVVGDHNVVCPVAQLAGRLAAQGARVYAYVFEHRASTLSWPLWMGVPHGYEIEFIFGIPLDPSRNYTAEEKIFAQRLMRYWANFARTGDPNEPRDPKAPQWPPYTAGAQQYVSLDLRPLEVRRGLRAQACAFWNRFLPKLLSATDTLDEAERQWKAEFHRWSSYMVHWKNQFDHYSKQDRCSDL
# [5] = target: T1, Amyloid-beta precursor protein; experiment: Inhibition of amyloid beta 42 (unknown origin) aggregation incubated for 24 hrs by ThT assay
# [6] = Selectivity ratio, ratio of inhibition of BChE (unknown origin) to inhibition of AChE (unknown origin)
# [7] = target: T1, Amyloid-beta precursor protein; experiment: Inhibition of amyloid beta 42 (unknown origin) aggregation assessed as reduction in amyloid beta fibril formation incubated for 72 hrs by Congo Red dye based UV- spectrophotometric analysis
SMILES,IC50 [1] [µM],inhibition [2],IC50 [3] [µM],IC50 [4] [µM],IC50 [5] [µM],Ratio IC50 [6],inhibition [7]
COc1cc(O)c2c(c1)C[C@@H]1c3c(cc4c(c3-2)OCO4)CC[N@@+]1(C)[O-],> 50,32.8%,> 300,> 300,> 50,,
COc1cc(O)c2c(c1)C[C@@H]1c3c(cc4c(c3-2)OCO4)CC[N@+]1(C)[O-],9.9,37.9%,> 300,> 300,> 50,,
O=C1C(=O)N2CCc3cc4c(c5c3c2c1c1ccccc15)OCO4,> 50,47.6%,13.7,51.3,> 50,0.3,
COc1cc2c(cc1OC)[C@@H]1Cc3ccc(O)c(OC)c3CN1CC2,> 50,10.7%,124,211,> 50,0.6,
COc1cc(O)c2c(c1)C[C@@H]1c3c(cc4c(c3-2)OCO4)CCN1C,14.8,15.1%,94.5,85,> 50,1.1,
COC1=C(CC(=O)CCc2ccccc2)C(=O)O[C@@H]1O,> 50,74.4%,> 300,> 300,26.6,,Active
COc1ccc2c(c1)C(=O)c1nccc3cc4c(c-2c13)OCO4 [ATHEROSPERMIDINE],> 50,86.2%,> 300,10.9,31.9,> 27.5,Active
COC1=CC(=O)c2c(cc3c4c(cc5c(c24)OCO5)CCN3C)C1=O,> 50,30.7%,83.5,221,> 50,0.4,
COc1cc2c(c(O)c1OC)CC[N@+]1(C)Cc3c(ccc(O)c3OC)C[C@@H]21,43.6,inactive,> 300,131,,> 2.3,
COc1cc2c(c(O)c1OC)CC[n+]1cc3c(OC)c(O)ccc3cc1-2,> 50,inactive,> 300,16.4,,> 18.3,
Cc1c(C)c2c(c(C)c1O)CCC(C)(C(=O)O)O2 (stereo unspecified) [TROLOX],11,,,,,,
COc1cc(O)c2c(c1)C[C@H]1NCCc3c(OC)c4c(c-2c31)OCO4,13.5,44.5%,141,162,> 50,0.9,
COc1ccc2c(c1)C[C@H]1NCCc3cc4c(c-2c31)OCO4,> 50,28%,68.5,126,> 50,0.5,
COc1cc2c(cc1O)[C@@H]1Cc3ccc(OC)c(O)c3CN1CC2 [SCOULERINE],43.8,3.3%,61.3,143,> 50,0.4,
COc1ccc(C[C@H]2c3c(ccc(OC)c3O)CCN2C)cc1,38.3,26.6%,33,25.6,> 50,1.3,
COc1ccc2c(c1)C[C@@H]1c3c(cc4c(c3-2)OCO4)CCN1C,> 50,38.2%,36.4,26.2,> 50,1.4,
COc1cc(O)cc2c1-c1c3c(cc4c1[C@@H](C2)N(C)CC4)OCO3,16.5,76%,> 300,> 300,35.7,,Active
COc1cc2c(c(O)c1OC)CCN1Cc3c(ccc(O)c3OC)C[C@@H]21,> 50,inactive,> 300,89,,> 3.4,
COc1cc2c(cc1O)CC[n+]1cc3c(OC)c(O)ccc3cc1-2,26.5,30%,119,17.8,50,6.7,
COc1ccc2c(c1OC)c1c3c4c(cc5c(c42)OCO5)CCN3C(=O)C1=O,> 50,10.9%,251,33,> 50,7.6,
COc1cc(O)c2c(c1)C[C@H]1NCCc3cc4c(c-2c31)OCO4,> 50,10.2%,> 300,> 300,> 50,,
